Literature values as cited in patent US20220315503A1, “METHODS FOR PRODUCING TREATED MANURE” (COMMONWEALTH SCIENTIFIC AND INDUSTRIAL RESEARCH ORGANISATION, priority 2019, published 2022).
Read-outs that look alike come from different tables or passages of the source.

Tests used:
[1] = system: enteric CH4 emission; details: beef cattle; administered in animal feed
[2] = system: enteric CH4 emission; details: sheep
[3] = system: CH4 yield of feces
[4] = system: enteric CH4 emission; details: dairy cattle
[5] = system: production of CH4 in rumen fluid
[6] = initial concentrations 132 to 177 μg/L; 1.5 hours packed-bed detention time

Row | Compound | reduction of CH4 emission [1] [%] | reduction in CH4 emissions [2] [%] | overall CH4 yield of spiked feces ([3]; feces spiked with 200 mg kg^−1 dry matter) | downstream effect on CH4 emissions of the feces ([3]; inhibitor included in animal diets) | reduction in CH4 emissions [4] | production of CH4 compared to control in rumen fluid ([5]; concentration of 1 μM) | production of CH4 compared to control in rumen fluid ([5]; concentrations ≥5 μM) | reduction (degradation) under anaerobic conditions [6] [%]
1 | O=[N+]([O-])OCCCO [3NOP, 3-nitrooxypropanol] | 59 | 24 | no significant difference | no significant downstream effect | up to 60% |  |  | 
2 | BrC(Br)Br [bromoform, tribromomethane] |  |  |  |  |  | inhibit the production of CH4 | inhibit the production of CH4 | > 99
3 | ClC(Br)Br [dibromochloromethane] |  |  |  |  |  | inhibit the production of CH4 | inhibit the production of CH4 | 
